In PubChem BioAssay AID1259408 (Genetic Toxicology Data Bank (GENE-TOX), 2018):
The source made the active and inactive calls. The rule behind the calls is not given here.

System: GENE-TOX genotoxicity assays, various organisms and cells
Assay: GENE-TOX mutagenicity studies
Details: for call: Assay Type: In vivo carcinogenicity studies
[1] = Species/Cell Type: Mouse, Sex: Male, Assay Type: Sperm morphology, Assay Code: SPI-, Evaluation Type: Evaluation A (Pre-1980)

## NC(N)=O
Species/Cell Type: Allium cepa, Assay Type: Chromosome aberrations, Assay Code: ALC+D, Dose Response: With dose response, Evaluation Type: Evaluation A (Pre-1980)
  mutagenic call: active; positive
Species/Cell Type: Escherichia coli polA (W3119 vs P3478), Assay Type: Rec-assay, DNA effects (bacterial DNA repair), Assay Code: RE1T, Evaluation Type: Evaluation A (Pre-1980)
  mutagenic call: no conclusion
Species/Cell Type: Glycine max (soybean), Assay Type: Gene mutation, Assay Code: GLM-, Evaluation Type: Evaluation A (Pre-1980)
  mutagenic call: inactive; negative
Species/Cell Type: Human lymphocytes or leukocytes, Assay Type: Chromosome aberrations in vitro, Assay Code: CY7+, Evaluation Type: Evaluation A (Pre-1980)
  mutagenic call: active; positive
[1]
  mutagenic call: inactive; negative
Species/Cell Type: Plant, Assay Type: Micronucleus test, chromosome aberrations, Assay Code: MNP+, Evaluation Type: Evaluation A (Pre-1980)
  mutagenic call: active; positive

## CCSCCC(N)C(=O)O (stereo not drawn)
Species/Cell Type: Neurospora crassa, Assay Type: Aneuploidy, chromosome aberrations, Assay Code: NEN-, Evaluation Type: Evaluation A (Pre-1980)
  mutagenic call: inactive; negative
Species/Cell Type: Nonhuman, Assay Code: CCG+, Evaluation Type: Evaluation A (Pre-1980)
  call: active; positive
Species/Cell Type: Nonhuman, Assay Type: Sister-chromatid exchange (SCE) in vitro, Assay Code: SC2+, Evaluation Type: Evaluation B (Post-1980)
  mutagenic call: active; positive

## CC(=O)Nc1ccc(C(=O)CCl)cc1
Species/Cell Type: Nonhuman, Assay Code: CCG-, Evaluation Type: Evaluation A (Pre-1980)
  call: inactive; negative

## NC(Cc1ccc(F)cc1)C(=O)O (stereo not drawn)
Species/Cell Type: Aspergillus nidulans, Assay Type: Aneuploidy, chromosome aberrations, Assay Code: ASN+, Evaluation Type: Evaluation A (Pre-1980)
  mutagenic call: active; positive
Species/Cell Type: Aspergillus nidulans, Assay Type: Mitotic recombination, Assay Code: ASG-, Evaluation Type: Evaluation A (Pre-1980)
  mutagenic call: inactive; negative
Species/Cell Type: Neurospora crassa, Assay Type: Aneuploidy, chromosome aberrations, Assay Code: NEN+, Evaluation Type: Evaluation A (Pre-1980)
  mutagenic call: active; positive
Species/Cell Type: Saccharomyces cerevisiae, Assay Type: Aneuploidy, chromosome aberrations, Assay Code: YEN+, Evaluation Type: Evaluation A (Pre-1980)
  mutagenic call: active; positive
Species/Cell Type: Saccharomyces cerevisiae, Assay Type: Forward gene mutation, Assay Code: YEF+, Evaluation Type: Evaluation A (Pre-1980)
  mutagenic call: active; positive
Species/Cell Type: Saccharomyces cerevisiae, Assay Type: Mitotic recombination or gene conversion, Assay Code: YEC+, Evaluation Type: Evaluation A (Pre-1980)
  mutagenic call: active; positive
Species/Cell Type: Saccharomyces cerevisiae, Assay Type: Reverse gene mutation, Assay Code: YER+, Evaluation Type: Evaluation A (Pre-1980)
  mutagenic call: active; positive

## OC(c1ccc2c(c1)OCO2)C1CO1 (stereo not drawn)
Species/Cell Type: Drosophila melanogaster, Assay Type: Sex-linked recessive lethal gene mutation, Assay Code: SRLT, Evaluation Type: Evaluation A (Pre-1980)
  mutagenic call: no conclusion
Species/Cell Type: Salmonella typhimurium (one or more of the five standard strains: TA98, TA100, TA1535, TA1537, and TA1538), Assay Type: Histidine reverse gene mutation, Ames assay, Assay Code: SAL+, Evaluation Type: Evaluation A (Pre-1980)
  mutagenic call: active; positive

## [Cl][Sb]([Cl])[Cl]
Species/Cell Type: Bacillus subtilis (H17 vs M45), Assay Type: Rec-assay, spot test, DNA effects (bacterial DNA repair), Assay Code: REW+, Evaluation Type: Evaluation A (Pre-1980)
  mutagenic call: active; positive

## Nc1ccc(Cl)cc1Cl
[1]
  mutagenic call: inactive; negative

## COC(=O)CCN1CC1
Species/Cell Type: Schizosaccharomyces pombe, Assay Type: Reverse gene mutation, Assay Code: YEZ+, Evaluation Type: Evaluation A (Pre-1980)
  mutagenic call: active; positive

## CN(C)c1ccc(C(=C2C=CC(=[N+](C)C)C=C2)c2c(O)c(S(=O)(=O)[O-])cc3cc(S(=O)(=O)O)ccc23)cc1
Species/Cell Type: Saccharomyces cerevisiae, Assay Type: Mitotic recombination or gene conversion, Assay Code: YEC-, Evaluation Type: Evaluation A (Pre-1980)
  mutagenic call: inactive; negative

## CCCOC1=C(N2CC2)C(=O)C(OCCC)=C(N2CC2)C1=O
Species/Cell Type: Drosophila melanogaster, Assay Type: Sex-linked recessive lethal gene mutation, Assay Code: SRL+, Evaluation Type: Evaluation A (Pre-1980)
  mutagenic call: active; positive
Species/Cell Type: Human lymphocytes, Assay Type: Sister-chromatid exchange (SCE) in vitro, Assay Code: SCL+D, Dose Response: With dose response, Evaluation Type: Evaluation B (Post-1980)
  mutagenic call: active; positive
Species/Cell Type: Human, Assay Type: Sister-chromatid exchange (SCE) in vitro, Assay Code: SC1+D, Dose Response: With dose response, Evaluation Type: Evaluation B (Post-1980)
  mutagenic call: active; positive

## O[C@@H]1c2cccc3ccc4cc5ccccc5c(c4c23)[C@@H]1O
Species/Cell Type: Chinese hamster lung (V79) cells, Assay Type: Forward gene mutation at the HPRT or ouabain locus, Assay Code: V79-, Evaluation Type: Evaluation A (Pre-1980)
  mutagenic call: inactive; negative
Species/Cell Type: Salmonella typhimurium (one or more of the five standard strains: TA98, TA100, TA1535, TA1537, and TA1538), Assay Type: Histidine reverse gene mutation, Ames assay, Assay Code: SALT, Evaluation Type: Evaluation A (Pre-1980)
  mutagenic call: no conclusion
